Like-named read-outs stand apart in the source and are kept apart here.
Columns and labels:
[1] = test system: chick dorsal root ganglia (DRG) explants; test: Chick dorsal root ganglion cultures and neurite outgrowth; assay type: cell-based; details: read-out: ED50, nM Neurite Outgrowth in DRG Cultures
Method: Dorsal root ganglia were dissected from chick embryos of ten day gestation. Whole ganglion explants were cultured on thin layer Matrigel-coated 12 well plates with Liebovitz L15 plus high glucose media supplemented with 2 mM glutamine and 10% fetal calf serum, and also containing 10 μM cytosine β-D arabinofuranoside (Ara C) at 37° C. in an environment containing 5% CO2. Twenty-four hours later, the DRGs were treated with various concentrations of nerve growth factor (NGF), immunophilin ligands or combinations of NGF plus drugs. Forty-eight hours after drug treatment, the ganglia were visualized under phase contrast or Hoffman Modulation contrast with a Zeiss Axiovert inverted microscope. Photomicrographs of the explants were made, and neurite outgrowth was quantitated. Neurites longer than the DRG diameter were counted as positive, with total number of neurites quantitated per each experimental condition. Three to four DRGs were cultured per well, and each treatment was performed in duplicate.

[2] = target: FKBP (Homo sapiens, UniProt P62942); test: Ki test procedure: inhibition of peptidyl-prolyl isomerase (rotamase) activity, chymotrypsin-coupled assay; assay type: biochemical; details: apparent Ki, substrate N-succinyl-Ala-Phe-Pro-Phe-p-nitroanilide
[3] = drug alone, chick embryo DRG explants, 48 hours after drug treatment

FKBP, sequence (P62942 whole entry): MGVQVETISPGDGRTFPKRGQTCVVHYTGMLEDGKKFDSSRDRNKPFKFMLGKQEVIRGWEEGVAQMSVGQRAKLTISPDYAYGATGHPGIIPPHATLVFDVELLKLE

SMILES: COc1cc(C(=O)C(=O)N2CCCCC2C(=O)OCCCCc2ccccc2)cc(OC)c1OC [Compound 14, 4-Phenylbutyl (S)-N-(3,4,5-trimethoxyphenylglyoxyl)pipecolate]
- EC50 ([1]; Gallus gallus, 48 h): 1 to 5 nM

SMILES: O=C(C(=O)N1CCC[C@H]1C(=O)OCCCc1ccccc1)C1CCCCC1 [Compound 24, 3-Phenyl-1-propyl (2S)-1-(cyclohexylglyoxyl)-2-pyrrolidinecarboxylate]
- EC50 ([1]; Gallus gallus, 48 h): 0.13 nM

SMILES: CCC(C)(C)C(=O)C(=O)N1CCC[C@H]1C(=O)OCCCc1cc(OC)c(OC)c(OC)c1 [Compound 19, 3-(3,4,5-trimethoxyphenyl)-1-propyl (2S)-1-(3,3-dimethyl-1,2-dioxopentyl)-2-pyrrolidine-carboxylate]
- Ki ([2]; Table I): 25 nM
- EC50 ([1]; Gallus gallus, 48 h): 80 nM

SMILES: COc1cc(C(=O)C(=O)N2CCCCC2C(=O)OC(CCCc2ccccc2)CCCc2ccccc2)cc(OC)c1OC [Compound 29, 1,7-Diphenyl-4-heptyl (S)-N-(3,4,5-trimethoxyphenylglyoxyl)pipecolate]
- EC50 [1, 3]: 0.61 nM

SMILES: COc1ccc(CCCCOC(=O)C2CCCCN2C(=O)C(=O)c2ccccc2)cc1 (centres unmarked) [Compound 3]
- EC50 ([1]; Gallus gallus, 48 h): 0.5 nM

SMILES: COc1cc(C(=O)C(=O)N2CCCCC2C(=O)OC(CCCc2ccccc2)CCCc2ccccn2)cc(OC)c1OC [Compound 31, 1-Phenyl-7-(2-pyridyl)-4-heptyl (S)-N-(3,4,5-trimethoxyphenylglyoxyl)pipecolate]
- Ki ([2]; Table II): 1 nM
- EC50 ([1]; Gallus gallus, 48 h): 25 nM

SMILES: CCC(C)(C)C(=O)C(=O)N1CCC[C@H]1C(=O)OCCCc1cccnc1 [Compound 23, 3-(3-Pyridyl)-1-propyl (2S)-1-(3,3-dimethyl-1,2-dioxopentyl)-2-pyrrolidinecarboxylate]
- EC50 ([1]; Gallus gallus, 48 h): 0.05 nM

SMILES: CCC(C)(C)C(=O)C(=O)N1CCC[C@H]1C(=O)OC/C=C/c1cc(OC)c(OC)c(OC)c1 [Compound 20, 3-(3,4,5-trimethoxyphenyl)-1-prop-2-(E)-enyl (2S)-1-(3,3-dimethyl-1,2-dioxopentyl)-2-pyrrolidine carboxylate]
- Ki ([2]; Table I): 125 nM
- EC50 ([1]; Gallus gallus, 48 h): 190 nM

SMILES: O=C(C(=O)N1CCCCC1C(=O)OCCCc1ccccc1)c1ccccc1 (centres unmarked) [Compound 2, 3-Phenyl-1-propyl N-(phenylglyoxyl)-2-piperidinecarboxylate]
- EC50 ([1]; Gallus gallus, 48 h): 10 to 20 nM

SMILES: CCC(C)(C)C(=O)C(=O)N1CCC[C@H]1C(=O)OCCCc1ccccc1 [Compound 17, 3-phenyl-1-propyl (2S)-1-(3,3-dimethyl-1,2-dioxopentyl)-2-pyrrolidinecarboxylate]
- EC50 ([1]; Gallus gallus, 48 h): 0.053 nM

SMILES: O=C(C(=O)N1CCCCC1C(=O)OCCc1ccccc1)c1ccccc1 (centres unmarked) [Compound 5, 2-Phenyl-1-ethyl N-(phenylglyoxyl)-2-piperidinecarboxylate]
- EC50 ([1]; Gallus gallus, 48 h): 25 to 100 nM

SMILES: CCC(C)(C)C(=O)C(=O)N1CCC[C@H]1C(=O)OC/C=C/c1ccc(Cl)c(Cl)c1 [Compound 21, 3-(4,5-Dichlorophenyl)-1-prop-2-(E)-enyl (2S)-1-(3,3-dimethyl-1,2-dioxopentyl)-2-pyrrolidine carboxylate]
- Ki ([2]; Table I): 2500 nM
- EC50 ([1]; Gallus gallus, 48 h): 85 nM

SMILES: COc1ccc(CCCC(CCCc2ccccc2)OC(=O)C2CCCCN2C(=O)C(=O)c2cc(OC)c(OC)c(OC)c2)cc1 [Compound 32, 1-Phenyl-7-(4-methoxyphenyl)-4-heptyl (S)-N-(3,4,5-trimethoxyphenylglyoxyl)-pipecolate]
- Ki ([2]; Table II): 3 nM
- EC50 ([1]; Gallus gallus, 48 h): 0.5 nM

SMILES: COc1ccc(CCCCOC(=O)C2CCCCN2C(=O)C(=O)c2cc(OC)c(OC)c(OC)c2)cc1 [Compound 16, 4-(4-Methoxyphenyl)butyl (S)-N-(3,4,5-trimethoxyphenylglyoxyl)pipecolate]
- EC50 ([1]; Gallus gallus, 48 h): 0.03 nM

SMILES: O=C(C(=O)N1CCCCC1C(=O)OCc1ccccc1)c1ccccc1 (centres unmarked) [Compound 1, Benzyl N-(phenylglyoxyl)-2-piperidinecarboxylate]
- EC50 ([1]; Gallus gallus, 48 h): 25 to 100 nM

SMILES: COc1cc(C(=O)C(=O)N2CCCCC2C(=O)OC(CCCc2ccccc2)CCc2cccnc2)cc(OC)c1OC [Compound 30, 1-Phenyl-6-(3-pyridyl)-3-hexyl (S)-N-(3,4,5-trimethoxyphenylglyoxyl)pipecolate]
- EC50 ([1]; Gallus gallus, 48 h): 0.95 nM

SMILES: COC(=O)C(=O)N1CCCCC1C(=O)OCc1ccccc1 (centres unmarked) [Compound 7, Benzyl N-(methoxyglyoxyl)-2-piperidinecarboxylate]
- EC50 ([1]; Gallus gallus, 48 h): > 10000 nM

SMILES: CCC(C)(C)C(=O)C(=O)N1CCC[C@H]1C(=O)OC/C=C/c1ccccc1 [Compound 18, 3-phenyl-1-prop-2-(E)-enyl (2S)-1-(3,3-dimethyl-1,2-dioxopentyl)-2-pyrrolidinecarboxylate]
- EC50 ([1]; Gallus gallus, 48 h): 105 nM

SMILES: O=C(C(=O)N1CCCCC1C(=O)OCCCCc1ccccc1)c1ccccc1 (centres unmarked) [Compound 4, 4-Phenyl-1-butyl N-(phenylglyoxyl)-2-piperidinecarboxylate]
- EC50 ([1]; Gallus gallus, 48 h): 25 to 100 nM

SMILES: CCC(C)(C)C(=O)C(=O)N1CCC[C@H]1C(=O)OC/C=C/c1cc(OC)ccc1OC [Compound 22, 3-(2,5-Dimethoxyphenyl)-1-prop-2(E)-enyl (2S)-1-(3,3-dimethyl-1,2-dioxopentyl)-2-pyrrolidinecarboxylate]
- EC50 ([1]; Gallus gallus, 48 h): 0.8 nM

SMILES: O=C(C(=O)N1CCCCC1C(=O)OC(CCCc1ccccc1)CCCc1ccccc1)c1ccccc1 (centres unmarked) [Compound 28]
- EC50 [1, 3]: 0.0044 nM

From patent US7056935B2, “Rotamase enzyme activity inhibitors” (GPI NIL Holdings, Inc., priority 1995, dated 2006)
